Consider 20 compounds from US20230036854A1, “HETEROCYCLIC SPIRO-COMPOUNDS AS AM2 RECEPTOR INHIBITORS” (THE UNIVERSITY OF SHEFFIELD, priority 2018, published 2023).

The structures appear in SMILES notation.

The target of the assay is T1, AM2 receptor (1321N1 cells transfected with CALCRL+RAMP3) (Homo sapiens, UniProt O60896+Q16602).
T1 construct: host or cells: 1321N1 cells
T1 sequence (Q16602 23-461): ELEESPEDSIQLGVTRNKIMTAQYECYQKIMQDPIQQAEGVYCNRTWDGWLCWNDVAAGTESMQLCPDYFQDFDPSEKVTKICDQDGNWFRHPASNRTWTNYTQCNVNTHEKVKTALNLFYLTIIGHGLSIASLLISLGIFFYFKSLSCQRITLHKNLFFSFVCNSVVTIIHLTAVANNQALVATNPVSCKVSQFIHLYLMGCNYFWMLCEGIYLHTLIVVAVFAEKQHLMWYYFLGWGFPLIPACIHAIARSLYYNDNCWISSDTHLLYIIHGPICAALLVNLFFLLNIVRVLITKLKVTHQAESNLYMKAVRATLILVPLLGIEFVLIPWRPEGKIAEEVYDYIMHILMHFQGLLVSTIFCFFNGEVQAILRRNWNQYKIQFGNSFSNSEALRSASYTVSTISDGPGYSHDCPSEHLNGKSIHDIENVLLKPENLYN
T1 sequence (O60896 24-148): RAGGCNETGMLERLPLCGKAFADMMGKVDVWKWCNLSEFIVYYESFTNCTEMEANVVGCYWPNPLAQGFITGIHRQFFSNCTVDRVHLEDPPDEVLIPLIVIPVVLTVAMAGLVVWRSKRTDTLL
As to the kind of experiment: AM2 receptor inhibition, LANCE cAMP agonist-antagonist competition assay. The class given is cell-based. The following applies: inhibition of AM induced cAMP activation, read-out: AM2 D2 protocol: pIC50 (converted). In outline: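 cAMP was quantified by LANCE TR-FRET after an EC50 challenge with adrenomedullin (15 min, room temperature) in CALCRL+RAMP3-transfected 1321N1 cells (2500/well) that had first been exposed to compound for 30 min. Buffer was pH 7.4 HBSS with HEPES and BSA. Forskolin defined 100% stimulation and vehicle 0%.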
Take `CCC1(C(=O)N(CC(=O)Nc2ccc3c(c2)C[C@@]2(C3)C(=O)Nc3ncccc32)Cc2ccccc2CNC)CCN(C(=O)[C@@H](C)NC)CC1` [Example 77, 4-Ethyl-N-(2-((methylamino)methyl)benzyl)-1-((R)-2-(methylamino)propanoyl)-N-(2-oxo-2-(((R)-2′-oxo-1,1′,2′,3-tetrahydrospiro[indene-2,3′-pyrrolo[2,3-b]pyridin]-5-yl)amino)ethyl)piperidine-4-carboxamide]: the IC50 was 24 nM.

With `CCC1(C(=O)N(CC(=O)Nc2ccc3c(c2)C[C@@]2(C3)C(=O)Nc3ncccc32)Cc2ccccc2CNC)CCN(C(=O)c2cccc(C(F)(F)F)n2)CC1` [Example 78, (R)-4-Ethyl-N-(2-((methylamino)methyl)benzyl)-N-(2-oxo-2-((2′-oxo-1,1′,2′,3-tetrahydrospiro[indene-2,3′-pyrrolo[2,3-b]pyridin]-5-yl)amino)ethyl)-1-(6-(trifluoromethyl)picolinoyl)piperidine-4-carboxamide], the IC50 is 112 nM.

As for `CCC1(C(=O)N(CC(=O)Nc2ccc3c(c2)C[C@@]2(C3)C(=O)Nc3ncccc32)Cc2ccccc2CNC)CCN(C(=O)[C@@H](N)c2ccccc2)CC1` [Example 79, 1-((S)-2-Amino-2-phenylacetyl)-4-ethyl-N-(2-((methylamino)methyl)benzyl)-N-(2-oxo-2-(((R)-2′-oxo-1,1′,2′,3-tetrahydrospiro[indene-2,3′-pyrrolo[2,3-b]pyridin]-5-yl)amino)ethyl)piperidine-4-carboxamide], the IC50 was 7.41 nM.

In the case of `CCC1(C(=O)N(CC(=O)Nc2ccc3c(c2)C[C@@]2(C3)C(=O)Nc3ncccc32)Cc2ccccc2CNC)CCN(C(=O)[C@H](N)C(C)C)CC1` [Example 80, 1-((R)-2-Amino-3-methylbutanoyl)-4-ethyl-N-(2-((methylamino)methyl)benzyl)-N-(2-oxo-2-(((R)-2′-oxo-1,1′,2′,3-tetrahydrospiro[indene-2,3′-pyrrolo[2,3-b]pyridin]-5-yl)amino)ethyl)piperidine-4-carboxamide], the IC50 was 57.5 nM.

For the compound `CCC1(C(=O)N(CC(=O)Nc2ccc3c(c2)C[C@@]2(C3)C(=O)Nc3ncccc32)Cc2ccccc2CNC)CCN(C(=O)[C@H](N)c2ccccc2)CC1` [Example 81, 1-((R)-2-Amino-2-phenylacetyl)-4-ethyl-N-(2-((methylamino)methyl)benzyl)-N-(2-oxo-2-(((R)-2′-oxo-1,1′,2′,3-tetrahydrospiro[indene-2,3′-pyrrolo[2,3-b]pyridin]-5-yl)amino)ethyl)piperidine-4-carboxamide], the IC50 is 2.34 nM.

For the compound `CCC1(C(=O)N(CC(=O)Nc2ccc3c(c2)C[C@@]2(C3)C(=O)Nc3ncccc32)Cc2ccccc2CNC)CCN(C(=O)[C@@H](N)C(C)C)CC1` [Example 82, 1-((S)-2-Amino-3-methylbutanoyl)-4-ethyl-N-(2-((methylamino)methyl)benzyl)-N-(2-oxo-2-(((R)-2′-oxo-1,1′,2′,3-tetrahydrospiro[indene-2,3′-pyrrolo[2,3-b]pyridin]-5-yl)amino)ethyl)piperidine-4-carboxamide], the IC50 is 8.32 nM.

As to `CCC1(C(=O)N(CC(=O)Nc2ccc3c(c2)C[C@@]2(C3)C(=O)Nc3ncccc32)Cc2ccccc2CNC)CCN(C(=O)[C@H]2COCCN2)CC1` [Example 83, 4-Ethyl-N-(2-((methylamino)methyl)benzyl)-1-((R)-morpholine-3-carbonyl)-N-(2-oxo-2-(((R)-2′-oxo-1,1′,2′,3-tetrahydrospiro[indene-2,3′-pyrrolo[2,3-b]pyridin]-5-yl)amino)ethyl)piperidine-4-carboxamide], the IC50 was 56.2 nM.

Turning to `CCC1(C(=O)N(CC(=O)Nc2ccc3c(c2)C[C@@]2(C3)C(=O)Nc3ncccc32)Cc2ccccc2CNC)CCN(C(=O)c2ccn[nH]2)CC1` [Example 84, (R)-4-Ethyl-N-(2-((methylamino)methyl)benzyl)-N-(2-oxo-2-((2′-oxo-1,1′,2′,3-tetrahydrospiro[indene-2,3′-pyrrolo[2,3-b]pyridin]-5-yl)amino)ethyl)-1-(1H-pyrazole-5-carbonyl)piperidine-4-carboxamide], the IC50 was 3.55 nM.

In the case of `CCC1(C(=O)N(CC(=O)Nc2ccc3c(c2)C[C@@]2(C3)C(=O)Nc3ncccc32)Cc2ccccc2CNC)CCN(C(=O)c2cn[nH]c2)CC1` [Example 85, (R)-4-Ethyl-N-(2-((methylamino)methyl)benzyl)-N-(2-oxo-2-((2′-oxo-1,1′,2′,3-tetrahydrospiro[indene-2,3′-pyrrolo[2,3-b]pyridin]-5-yl)amino)ethyl)-1-(1H-pyrazole-4-carbonyl)piperidine-4-carboxamide], the IC50 was 3.8 nM.

Turning to `CCC1(C(=O)N(CC(=O)Nc2ccc3c(c2)C[C@@]2(C3)C(=O)Nc3ncccc32)Cc2ccccc2CNC)CCN(C(=O)c2cncs2)CC1` [Example 86, (R)-4-Ethyl-N-(2-((methylamino)methyl)benzyl)-N-(2-oxo-2-((2′-oxo-1,1′,2′,3-tetrahydrospiro[indene-2,3′-pyrrolo[2,3-b]pyridin]-5-yl)amino)ethyl)-1-(thiazole-5-carbonyl)piperidine-4-carboxamide], the IC50 was 1.26 nM.

As to `CCC1(C(=O)N(CC(=O)Nc2ccc3c(c2)C[C@@]2(C3)C(=O)Nc3ncccc32)Cc2ccccc2CNC)CCN(C(=O)C23CC(C2)C3)CC1` [Example 87], the IC50 was 2.19 nM.

Turning to `CCC1(C(=O)N(CC(=O)Nc2ccc3c(c2)C[C@@]2(C3)C(=O)Nc3ncccc32)Cc2ccccc2CNC)CCN(C(=O)C(C)(C)F)CC1` [Example 88, (R)-4-Ethyl-1-(2-fluoro-2-methylpropanoyl)-N-(2-((methylamino)methyl)benzyl)-N-(2-oxo-2-((2′-oxo-1,1′,2′,3-tetrahydrospiro[indene-2,3′-pyrrolo[2,3-b]pyridin]-5-yl)amino)ethyl)piperidine-4-carboxamide], the IC50 is 2.45 nM.

As to `CCC1(C(=O)N(CC(=O)Nc2ccc3c(c2)C[C@@]2(C3)C(=O)Nc3ncccc32)Cc2ccccc2CNC)CCN(C(=O)C2CCC2)CC1` [Example 89, (R)-1-(Cyclobutanecarbonyl)-4-ethyl-N-(2-((methylamino)methyl)benzyl)-N-(2-oxo-2-((2′-oxo-1,1′,2′,3-tetrahydrospiro[indene-2,3′-pyrrolo[2,3-b]pyridin]-5-yl)amino)ethyl)piperidine-4-carboxamide], the IC50 was 5.5 nM.

For the compound `CCC1(C(=O)N(CC(=O)Nc2ccc3c(c2)C[C@@]2(C3)C(=O)Nc3ncccc32)Cc2ccccc2CNC)CCN(C(=O)CN2CCOCC2)CC1` [Example 90, (R)-4-Ethyl-N-(2-((methylamino)methyl)benzyl)-1-(2-morpholinoacetyl)-N-(2-oxo-2-((2′-oxo-1,1′,2′,3-tetrahydrospiro[indene-2,3′-pyrrolo[2,3-b]pyridin]-5-yl)amino)ethyl)piperidine-4-carboxamide], the IC50 is 22.9 nM.

For `CCC1(C(=O)N(CC(=O)Nc2ccc3c(c2)C[C@@]2(C3)C(=O)Nc3ncccc32)Cc2ccccc2CNC)CCN(C(=O)c2cc(C(C)(C)C)n[nH]2)CC1` [Example 91, (R)-1-(3-(tert-Butyl)-1H-pyrazole-5-carbonyl)-4-ethyl-N-(2-((methylamino)methyl)benzyl)-N-(2-oxo-2-((2′-oxo-1,1′,2′,3-tetrahydrospiro[indene-2,3′-pyrrolo[2,3-b]pyridin]-5-yl)amino)ethyl)piperidine-4-carboxamide], the IC50 is 34.7 nM.

Turning to `CCC1(C(=O)N(CC(=O)Nc2ccc3c(c2)C[C@@]2(C3)C(=O)Nc3ncccc32)Cc2ccccc2CNC)CCN(C(=O)c2cc(C(C)(C)C)nn2C)CC1` [Example 92, (R)-1-(3-(tert-Butyl)-1-methyl-1H-pyrazole-5-carbonyl)-4-ethyl-N-(2-((methylamino)methyl)benzyl)-N-(2-oxo-2-((2′-oxo-1,1′,2′,3-tetrahydrospiro[indene-2,3′-pyrrolo[2,3-b]pyridin]-5-yl)amino)ethyl)piperidine-4-carboxamide], the IC50 was 13.2 nM.

As to `CCC1(C(=O)N(CC(=O)Nc2ccc3c(c2)C[C@@]2(C3)C(=O)Nc3ncccc32)Cc2ccccc2CNC)CCN(C(=O)[C@@H]2COCCN2)CC1` [Example 93, 4-Ethyl-N-(2-((methylamino)methyl)benzyl)-1-((S)-morpholine-3-carbonyl)-N-(2-oxo-2-(((R)-2′-oxo-1,1′,2′,3-tetrahydrospiro[indene-2,3′-pyrrolo[2,3-b]pyridin]-5-yl)amino)ethyl)piperidine-4-carboxamide], the IC50 was 18.6 nM.

For `CCC1(C(=O)N(CC(=O)Nc2ccc3c(c2)C[C@@]2(C3)C(=O)Nc3ncccc32)Cc2ccccc2CNC)CCN(C(=O)[C@H](C)NC)CC1` [Example 94, 4-Ethyl-N-(2-((methylamino)methyl)benzyl)-1-((S)-2-(methylamino)propanoyl)-N-(2-oxo-2-(((R)-2′-oxo-1,1′,2′,3-tetrahydrospiro[indene-2,3′-pyrrolo[2,3-b]pyridin]-5-yl)amino)ethyl)piperidine-4-carboxamide], the IC50 is 15.1 nM.

Regarding `CCC1(C(=O)N(CC(=O)Nc2ccc3c(c2)C[C@@]2(C3)C(=O)Nc3ncccc32)Cc2ccccc2CNC)CCN(C(=O)CN2CCC(F)(F)CC2)CC1` [Example 95, (R)-1-(2-(4,4-Difluoropiperidin-1-yl)acetyl)-4-ethyl-N-(2-((methylamino)methyl)benzyl)-N-(2-oxo-2-((2′-oxo-1,1′,2′,3-tetrahydrospiro[indene-2,3′-pyrrolo[2,3-b]pyridin]-5-yl)amino)ethyl)piperidine-4-carboxamide], the IC50 is 12.6 nM.

For `CCC1(C(=O)N(CC(=O)Nc2ccc3c(c2)C[C@@]2(C3)C(=O)Nc3ncccc32)Cc2ccccc2CNC)CCN(C(=O)COCCOCCOCCOCCOC)CC1` [Example 96, (R)-4-Ethyl-1-(2,5,8,11,14-pentaoxahexadecan-16-oyl)-N-(2-((methylamino)methyl)benzyl)-N-(2-oxo-2-((2′-oxo-1,1′,2′,3-tetrahydrospiro[indene-2,3′-pyrrolo[2,3-b]pyridin]-5-yl)amino)ethyl)piperidine-4-carboxamide], the IC50 is 24.5 nM.
